Data taken from patent publication US9242933B2 (AbbVie Deutschland GmbH & Co. KG, priority 2007, dated 2016).

Columns and labels:
[1] = biological target: mGlu3 (Homo sapiens, UniProt Q14832); details: agonist; cited from earlier work
[2] = biological target: T1, human mGlu2 receptor (Homo sapiens, UniProt Q14416); test: FLIPR intracellular Ca2+ assay, potentiation of glutamate response in HEK293 clone expressing mGlu2 receptor, rGLAST and Galpha16; assay type: cell-based; details: 1 μM glutamate added ten minutes after test compound, HEK293 cells with human mGlu2, rGLAST, Galpha16, read-out: EC50 values of potentiation effect to glutamate
T1 construct: expressed in transfected cells; host or cells: HEK293
T1 sequence (Q14416 19-872): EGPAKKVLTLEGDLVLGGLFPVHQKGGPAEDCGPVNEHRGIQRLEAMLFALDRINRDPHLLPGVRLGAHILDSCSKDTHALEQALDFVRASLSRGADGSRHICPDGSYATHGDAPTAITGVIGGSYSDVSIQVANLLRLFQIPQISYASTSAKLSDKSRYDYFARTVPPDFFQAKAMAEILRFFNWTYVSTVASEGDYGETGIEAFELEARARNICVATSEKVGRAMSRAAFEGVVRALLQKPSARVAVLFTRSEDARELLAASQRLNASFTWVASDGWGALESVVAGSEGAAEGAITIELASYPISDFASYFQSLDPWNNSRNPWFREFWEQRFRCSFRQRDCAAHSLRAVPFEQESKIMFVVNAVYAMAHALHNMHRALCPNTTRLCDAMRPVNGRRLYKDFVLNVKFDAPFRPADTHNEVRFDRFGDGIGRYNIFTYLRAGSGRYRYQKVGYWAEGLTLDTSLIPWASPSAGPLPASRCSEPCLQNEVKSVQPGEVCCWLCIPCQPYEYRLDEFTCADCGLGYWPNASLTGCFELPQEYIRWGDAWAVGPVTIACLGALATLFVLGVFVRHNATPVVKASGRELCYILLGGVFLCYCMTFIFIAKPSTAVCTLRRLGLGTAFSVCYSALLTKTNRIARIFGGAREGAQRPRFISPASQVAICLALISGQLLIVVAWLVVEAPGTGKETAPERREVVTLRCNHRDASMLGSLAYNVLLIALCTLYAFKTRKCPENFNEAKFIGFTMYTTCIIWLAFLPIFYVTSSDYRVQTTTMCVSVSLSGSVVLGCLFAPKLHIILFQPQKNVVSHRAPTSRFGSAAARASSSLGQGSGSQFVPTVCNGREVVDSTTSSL
Outline: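 HEK293 cells stably expressing human mGlu2, rat GLAST and Gα16 were loaded with 2 µM Fluo-4 AM and intracellular Ca2+ read by FLIPR. Compound added alone (agonism), then with submaximal glutamate (e.g. 1 µM; potentiation). Background-subtracted peaks normalized to 100 µM glutamate response; EC50 from four-parameter fit.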

Chain of mGlu3 (Q14832 23-879): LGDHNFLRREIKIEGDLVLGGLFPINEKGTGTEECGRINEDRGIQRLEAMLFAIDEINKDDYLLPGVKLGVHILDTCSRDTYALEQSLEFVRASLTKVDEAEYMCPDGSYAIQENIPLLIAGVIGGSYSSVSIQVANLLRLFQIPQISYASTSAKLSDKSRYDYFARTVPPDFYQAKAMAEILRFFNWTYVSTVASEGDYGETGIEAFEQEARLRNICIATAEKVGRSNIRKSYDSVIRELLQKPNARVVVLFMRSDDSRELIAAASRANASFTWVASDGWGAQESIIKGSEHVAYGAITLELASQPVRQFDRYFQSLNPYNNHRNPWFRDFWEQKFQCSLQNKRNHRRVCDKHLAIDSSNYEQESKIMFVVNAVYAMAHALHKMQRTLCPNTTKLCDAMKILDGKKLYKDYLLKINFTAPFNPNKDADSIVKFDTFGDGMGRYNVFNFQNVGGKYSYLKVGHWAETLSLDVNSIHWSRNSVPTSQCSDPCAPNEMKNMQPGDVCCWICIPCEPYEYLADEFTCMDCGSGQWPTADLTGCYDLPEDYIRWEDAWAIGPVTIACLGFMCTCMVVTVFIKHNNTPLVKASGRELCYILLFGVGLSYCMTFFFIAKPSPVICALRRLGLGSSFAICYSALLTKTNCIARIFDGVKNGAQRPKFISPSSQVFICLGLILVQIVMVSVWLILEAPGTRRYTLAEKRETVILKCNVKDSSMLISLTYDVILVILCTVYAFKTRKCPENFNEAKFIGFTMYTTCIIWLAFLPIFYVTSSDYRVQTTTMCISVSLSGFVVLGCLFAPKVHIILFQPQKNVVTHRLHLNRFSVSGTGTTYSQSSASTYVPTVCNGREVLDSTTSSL

Structure (SMILES) | EC50 [2] [nM] | EC50 [1] [nM]
N[C@@]1(C(=O)O)CC[C@H]2[C@H](C(=O)O)[C@H]21 [LY354740] | – | 20
CCC(C)Oc1cccc(N(Cc2c[nH]nc2-c2ccc(C(F)(F)F)cc2)S(=O)(=O)CC(F)(F)F)c1 (centres unmarked) [Example 456, 2,2,2-Trifluoro-ethanesulfonic acid (3-sec-butoxy-phenyl)-[3-(4-trifluoromethyl-phenyl)-1H-pyrazol-4-ylmethyl]-amide] | 1000 to 10000 | –
CCCC(=O)c1ccc(NCc2c(C)nn(C)c2Oc2ccc(Cl)cc2)cc1 [Example 49, 1-(4-{[5-(4-Chlorophenoxy)-1,3-dimethyl-1H-pyrazol-4-ylmethyl]amino}phenyl)butan-1-one] | 1000 to 10000 | –
N[C@@]1(C(=O)O)CO[C@H]2[C@H](C(=O)O)[C@H]21 [LY379268] | – | 5
CCCC(=O)c1ccc(NCc2c(C)nn(C)c2Oc2cccc(Cl)c2)cc1 [Example 50, 1-(4-{[5-(3-Chlorophenoxy)-1,3-dimethyl-1H-pyrazol-4-ylmethyl]amino}phenyl)butan-1-one] | 1000 to 10000 | –
CCCC(=O)c1ccc(NCc2c[nH]nc2-c2ccc(OC)cc2)cc1 [Example 209, 1-(4-{[3-(4-Methoxy-phenyl)-1H-pyrazol-4-ylmethyl]-amino}-phenyl)-butan-1-one] | < 1000 | –
COc1ccc(NCc2c[nH]nc2-c2ccc(C(F)(F)F)cc2)c(OC)n1 [Example 351, (2,6-Dimethoxy-pyridin-3-yl)-[3-(4-trifluoromethyl-phenyl)-1H-pyrazol-4-ylmethyl]-amine] | 1000 to 10000 | –
CC(C)CCOc1ccc(NCc2c[nH]nc2C(C)(C)C)cc1 [Example 298, (3-tert-Butyl-1H-pyrazol-4-ylmethyl)-[4-(3-methyl-butoxy)-phenyl]-amine] | 1000 to 10000 | –
CCCC(=O)c1ccc(NCc2c[nH]nc2-c2ccc(C)cc2)cc1 [Example 212, 1-{4-[(3-p-Tolyl-1H-pyrazol-4-ylmethyl)-amino]-phenyl}-butan-1-one] | < 1000 | –
CCCC(=O)c1ccc(NCc2ccnn2-c2ccccc2)cc1 [Example 57, 1-{4-[(2-Phenyl-2H-pyrazol-3-ylmethyl)amino]phenyl}butan-1-one] | 1000 to 10000 | –
CCCC(=O)c1ccc(NCc2ccc3ncccc3c2)cc1 [Example 25, 1-{4-[(Quinolin-6-ylmethyl)amino]phenyl}butan-1-one] | 1000 to 10000 | –
CCCc1c(NCc2c[nH]nc2-c2cccc(C(F)(F)F)c2)ccc(C(C)=O)c1O [Example 436, 1-(2-Hydroxy-3-propyl-4-{[3-(3-trifluoromethyl-phenyl)-1H-pyrazol-4-ylmethyl]-amino}-phenyl)-ethanone] | 1000 to 10000 | –
CCCC(=O)c1ccc(NCc2cnc(-c3ccccc3)s2)cc1 [Example 246, 1-{4-[(2-Phenyl-thiazol-5-ylmethyl)-amino]-phenyl}-butan-1-one] | 1000 to 10000 | –
CCCC(=O)c1ccc(NCc2n[nH]c3ccc(OC)cc23)cc1 [Example 223, 1-{4-[(5-Methoxy-1H-indazol-3-ylmethyl)-amino]-phenyl}-butan-1-one] | 1000 to 10000 | –

More lines, main results first:

EC50 [2] [nM] | Structure (SMILES) | EC50 [1] [nM]
< 1000 | CCCCN1Cc2cc(OCc3c[nH]nc3-c3ccc(Cl)cc3)ccc2C1=O [Example 546, 2-Butyl-5-[3-(4-chloro-phenyl)-1H-pyrazol-4-ylmethoxy]-2,3-dihydro-isoindol-1-one] | –
< 1000 | O=C1c2ccc(OCc3c[nH]nc3-c3ccc(F)cc3)cc2CN1CC(F)(F)F [Example 570, 5-[3-(4-Fluorophenyl)-1H-pyrazol-4-ylmethoxy]-2-(2,2,2-trifluoro-ethyl)-2,3-dihydro-isoindol-1-one] | –
< 1000 | CC(=O)c1ccc(NCc2c[nH]nc2-c2ccc(Cl)cc2)c(C)c1O [Example 440, 1-(4-{[3-(4-Chloro-phenyl)-1H-pyrazol-4-ylmethyl]-amino}-2-hydroxy-3-methyl-phenyl)-ethanone] | –
< 1000 | O=C1c2ccc(OCc3c[nH]nc3-c3ccc(C(F)(F)F)cc3)cc2CN1CC(F)F [Example 566, 2-(2,2-Difluoro-ethyl)-5-[3-(4-trifluoromethyl-phenyl)-1H-pyrazol-4-ylmethoxy]-2,3-dihydro-isoindol-1-one] | –
< 1000 | CCCC(=O)c1ccc(OCc2c[nH]nc2-c2cccc(F)c2)cc1 [Example 497, 1-{4-[3-(3-Fluorophenyl)-1H-pyrazol-4-ylmethoxy]-phenyl}-butan-1-one] | –
< 1000 | CCCN1Cc2cc(OCc3c[nH]nc3-c3ccc(Cl)cc3)ccc2C1=O [Example 534, 5-[3-(4-Chloro-phenyl)-1H-pyrazol-4-ylmethoxy]-2-propyl-2,3-dihydro-isoindol-1-one] | –
< 1000 | CCCN1Cc2cc(OCc3c[nH]nc3-c3cccc(Cl)c3)ccc2C1=O [Example 535, 5-[3-(3-Chloro-phenyl)-1H-pyrazol-4-ylmethoxy]-2-propyl-2,3-dihydro-isoindol-1-one] | –
< 1000 | CCCN1Cc2cc(OCc3c[nH]nc3-c3ccc(F)cc3)ccc2C1=O [Example 533, 5-[3-(4-Fluorophenyl)-1H-pyrazol-4-ylmethoxy]-2-propyl-2,3-dihydro-isoindol-1-one] | –
< 1000 | O=C1c2ccc(OCc3c[nH]nc3-c3ccc(C(F)(F)F)cc3)cc2CN1Cc1ccc(OC(F)(F)F)cc1 [Example 585, 2-(4-Trifluoromethoxy-benzyl)-5-[3-(4-trifluoromethyl-phenyl)-1H-pyrazol-4-ylmethoxy]-2,3-dihydro-isoindol-1-one] | –
